From patent EP0212605A2, “Azolyl-cyclopropyl-ethanol derivatives, processes for their preparation and their use” (HOECHST AKTIENGESELLSCHAFT, priority 1985, dated 1987)

Tested on: Candida albicans
Test: Oral and parenteral in vivo efficacy in mice experimentally infected with Candida albicans (survival time)
Parameters: species or system Mäusen (Stamm HOE: NMRKF; SPF 71)
Settings: for d̄ Tage: mean survival time of 5 mice; for Überlebenszeit in % (Standardpräp.= 100%): relative to Ketoconazol = 100%
Experimental: Zur Feststellung der oralen und parenteralen Wirksamkeit wurden Gruppen von je 5 18-20 g schweren Mäusen (Stamm HOE: NMRKF; SPF 71) mit 2 . 10^6 Keimen/Tier infiziert.
Die Behandlung der Tiere erfolgte oral bzw. subcutan in 8 gleichen Einzeldosen zu je 30 mg/kg bzw. 10 mg/kg Körpergewicht (-24/-18/-2h/+2/24/30/48/54h).
Neben der mit den erfindungsgemäßen Substanzen I behandelten Gruppe von 5 Tieren wurde zum Vergleich eine Gruppe von ebenfalls 5 Tieren mit der Referenzsubstanz Ketoconazol behandelt. Eine kontrollgruppe von 10 Tieren blieb nach der Infektion unbehandelt.

SMILES: CC(=O)N1CCN(c2ccc(OCC3COC(Cn4ccnc4)(c4ccc(Cl)cc4Cl)O3)cc2)CC1 (centres unmarked) [Ketoconazol, reference compound]
- d̄ Tage (Oral 8x10 mg/kg): 5,6 Tage
- Überlebenszeit in % (Standardpräp.= 100%) (Oral 8x10 mg/kg): 100,0%
- d̄ Tage (Oral 8x30 mg/kg): 8,0 Tage
- Überlebenszeit in % (Standardpräp.= 100%) (Oral 8x30 mg/kg): 100,0%
- d̄ Tage (Subcutan 8x10 mg/kg): 6,4 Tage
- Überlebenszeit in % (Standardpräp.= 100%) (Subcutan 8x10 mg/kg): 100,0%
- d̄ Tage (Subcutan 8x30 mg/kg): 8,0 Tage
- Überlebenszeit in % (Standardpräp.= 100%) (Subcutan 8x30 mg/kg): 100,0%

SMILES: OC(Cn1cncn1)(c1ccc(Cl)cc1Cl)C1CC1c1ccc(Cl)cc1 (single isomer, unassigned) [29 a]
- d̄ Tage (Oral 8x10 mg/kg): 6,8 Tage
- Überlebenszeit in % (Standardpräp.= 100%) (Oral 8x10 mg/kg): 121,4%
- d̄ Tage (Oral 8x30 mg/kg): 9,8 Tage
- Überlebenszeit in % (Standardpräp.= 100%) (Oral 8x30 mg/kg): 122,5%
- d̄ Tage (Subcutan 8x10 mg/kg): 7,2 Tage
- Überlebenszeit in % (Standardpräp.= 100%) (Subcutan 8x10 mg/kg): 112,5%
- d̄ Tage (Subcutan 8x30 mg/kg): 11,4 Tage
- Überlebenszeit in % (Standardpräp.= 100%) (Subcutan 8x30 mg/kg): 142,5%

SMILES: OC(Cn1cncn1)(c1ccc(Cl)cc1)C1CC1c1ccc(Cl)cc1 (single isomer, unassigned) [34 b]
- d̄ Tage (Oral 8x10 mg/kg): 11,6 Tage
- Überlebenszeit in % (Standardpräp.= 100%) (Oral 8x10 mg/kg): 207,1%
- d̄ Tage (Oral 8x30 mg/kg): 13,0 Tage
- Überlebenszeit in % (Standardpräp.= 100%) (Oral 8x30 mg/kg): 162,5%
- d̄ Tage (Subcutan 8x10 mg/kg): 11,0 Tage
- Überlebenszeit in % (Standardpräp.= 100%) (Subcutan 8x10 mg/kg): 171,9%
- d̄ Tage (Subcutan 8x30 mg/kg): 8,0 Tage
- Überlebenszeit in % (Standardpräp.= 100%) (Subcutan 8x30 mg/kg): 100,0%

SMILES: OC(Cn1cncn1)(c1ccc(F)cc1)C1CC1c1ccc(Cl)cc1Cl (single isomer, unassigned) [27 b]
- d̄ Tage (Oral 8x10 mg/kg): 9,2 Tage
- Überlebenszeit in % (Standardpräp.= 100%) (Oral 8x10 mg/kg): 164,3%
- d̄ Tage (Oral 8x30 mg/kg): 11,6 Tage
- Überlebenszeit in % (Standardpräp.= 100%) (Oral 8x30 mg/kg): 145,0%
- d̄ Tage (Subcutan 8x10 mg/kg): 10,4 Tage
- Überlebenszeit in % (Standardpräp.= 100%) (Subcutan 8x10 mg/kg): 162,5%
- d̄ Tage (Subcutan 8x30 mg/kg): 12,6 Tage
- Überlebenszeit in % (Standardpräp.= 100%) (Subcutan 8x30 mg/kg): 157,5%
